Experimental findings from patent US4879295A, “N-tetrazolyl thiazolecarboxyamide derivatives and their use” (Sawai Pharmaceutical Co., Ltd., priority 1986, dated 1989) are described below.

For assay [1], the system named is passive cutaneous anaphylaxis (PCA). The assay is described as follows: Anti-passive cutaneous anaphylaxis (PCA) activity in rats, 48-hours PCA (TEST EXAMPLE 1). The class given is in vivo, rat (Wistar strain male). Conditions: Rattus norvegicus. Here is the method: Anti-passive cutaneous anaphylaxis (PCA) activity in rats
(§1) Wistar strain male rats (6 weeks old) were purchased from Shizuoka Experimental Animal Agricultural Cooperative (Japan), habituated to a breeding environment for 1 week before using for the experiment.
(2) Preparation of antiserum
Preparation of antiserum was carried out according to the method described in J. Immunol. 106, 1002-1011 (1971).
(§2) Thus, Ascaris suum extract was dinitrophenylated (DNP-As) and infused subcutaneously together with dead Bordetella pertussis at four sites on the foot-pad. After 5 days, the rats were boostered with DNP-As (1 mg) at the dosal muscle. After 3 days, bloods samples were collected and serum was separated which was used as anti DNP-As antiserum. The titer of the antiserum was measured by rats 48-hours PCA and found to be 1:200.
Rats were sensitized with 35 times dilution of anti DNP-As antiserum administered at two sites in the pre-clipped right dosal skin. After 48 hours, DNP-As (500 μg in 0.5% Evans blue-physiological saline (1 ml) was administered into caudal vein to elicit the reaction. Then, 30 minutes later, the animals were decapitated, the dosal skin was peeled, two sensitized areas as well as one control area were cut off and analyzed for Evans blue exudation which was used as an indicative of the reaction according to the method disclosed in Microbiol. Immunol. 22, 89-101 (1978). Thus, cut skins were treated with 1N-NaOH (1 ml) and incubated at 37° C. for 16 hours to dissolve the skin tissue. A mixed solution (9 ml) of 0.6N-phosphoric acid-acetone (5:13) was added and the mixture was centrifuged (300 r.p.m) for 15 minutes. The supernatant was assayed for absorption at 620 nm and the exudation of Evans blue was determined. Test compounds (I) were administered either into caudal vein 5 minutes before the elicitation of the reaction, or perorally as a suspension in 0.5% 1 hour before the elicitation.

Assay [2] shares this test system. The assay can be described thus: Anti-passive cutaneous anaphylaxis (PCA) activity in rats, P.O. only (TEST EXAMPLE 2). In kind it is in vivo, rat (Wistar strain male). Conditions: 1 hour before elicitation. As for the experimental part:
as §1, §2
Rats were sensitized with 35 times dilution of anti DNP-As antiserum administered at two sites in the pre-clipped right dosal skin. […] The supernatant was assayed for absorption at 620 nm and the exudation of Evans blue was determined. […]

Where [3] appears, read: iv, I.V. (caudal vein), 5 minutes before elicitation.
[4] abbreviates: po, P.O., 1 hour before elicitation.

On to `COc1ccc(O)c(-c2nc(C(=O)Nc3nnn[nH]3)cs2)c1` [Compound I-20, 2-(2-hydroxy-5-methoxyphenyl)-N-(1H-tetrazole-5-yl)-4-thiazolecarboxamide], for which the inhibition in vivo at 2 mg/kg in assay [1] (setting [3]) was determined as 93%.

As for `O=C(Nc1nnn[nH]1)c1csc(-c2ccccc2OCc2ccccc2)n1` [Compound I-23, 2-(2-benzyloxyphenyl)-N-(1H-tetrazole-5-yl)-4-thiazolecarboxamide], the inhibition in vivo at 2 mg/kg in assay [1] (setting [3]) amounted to 98%.

Turning to `COc1ccccc1-c1nc(C(=O)Nc2nnn[nH]2)cs1` [Compound I-2], in assay [1] (setting [3]), at 2 mg/kg the inhibition in vivo was 99%. The same compound showed an inhibition in vivo at 50 mg/kg in assay [1] (setting [4]) of 60%.

Take `Cc1ccc(-c2nc(C(=O)Nc3nnn[nH]3)cs2)cc1` [Compound I-7]: the inhibition in vivo at 30 mg/kg in assay [1] (setting [4]) came out at 76%.

As for `COc1ccc(-c2nc(C(=O)Nc3nnn[nH]3)cs2)cc1` [Compound I-4], in assay [1] (setting [3]), 2 mg/kg produced 98% inhibition in vivo.

Compound `Cc1ccc(-c2nc(C(=O)Nc3nnn[nH]3)c(C)s2)s1` [Compound I-42, 2-(5-Methyl-2-thienyl)-5-methyl-N-(1H-tetrazole-5-yl)-4-thiazolecarboxamide] returned an Inhibition in assay [2] (25 mg/kg) of 73%.

The compound `O=C(Nc1nnn[nH]1)c1csc(-c2cccc(C(F)(F)F)c2)n1` [Compound I-17, 2-(3-trifluoromethylphenyl)-N-(1H-tetrazole-5-yl)-4-thiazolecarboxamide] gave an inhibition in vivo at 2 mg/kg in assay [1] (setting [3]) of 98%.

In assay [1] (setting [3]), `COc1cccc(-c2nc(C(=O)Nc3nnn[nH]3)cs2)c1` [Compound I-3, 2-(3-methoxyphenyl)-N-(1H-tetrazole-5-yl)-4-thiazolecarboxamide] came in with an inhibition in vivo at 2 mg/kg of 99%. Also, in assay [1] (setting [4]), at 30 mg/kg the inhibition in vivo was 77%.

Regarding `O=C(Nc1nnn[nH]1)c1csc(-c2cc([N+](=O)[O-])ccc2O)n1` [Compound I-21, 2-(2-hydroxy-5-nitrophenyl)-N-(1H-tetrazole-5-yl)-4-thiazolecarboxamide], in assay [1] (setting [3]), testing at 2 mg/kg gave an inhibition in vivo of 98%.

In turn, `Cc1ccc(-c2nc(C(=O)Nc3nnn[nH]3)c(C)s2)cc1` [Compound I-27, 2-(4-methylphenyl)-5-methyl-N-(1H-tetrazole-5-yl)-4-thiazolecarboxamide] gave an inhibition in vivo at 25 mg/kg in assay [1] (po, P.O., 25 mg/kg, 1 hour before elicitation) of 91%.

As to `COc1ccc(/C=C/C(=O)Nc2ccccc2C(=O)O)cc1OC` [Tranilast, tranilast, reference compound], the Inhibition in assay [2] (50 mg/kg) is 0%. In assay [1] (setting [4]), this compound had an inhibition in vivo at 50 mg/kg of 0%.

In assay [1] (setting [3]), `Cc1ccc(O)c(-c2nc(C(=O)Nc3nnn[nH]3)cs2)c1` [Compound I-22, 2-(2-hydroxy-5-methylphenyl)-N-(1H-tetrazole-5-yl)-4-thiazolecarboxamide] displayed an inhibition in vivo at 2 mg/kg of 81%.

Take `O=C(O)c1cc(=O)c2c(OCC(O)COc3cccc4oc(C(=O)O)cc(=O)c34)cccc2o1` [DSCG, disodium cromoglicate, reference compound]: the inhibition in vivo at 5 mg/kg in assay [1] (iv, I.V. (caudal vein), 5 mg/kg, 5 minutes before elicitation) stood at 92%.

In assay [1] (setting [3]), `O=C(Nc1nnn[nH]1)c1csc(-c2cc(Cl)ccc2O)n1` [Compound I-19, 2-(5-chloro-2-hydroxyphenyl)-N-(1H-tetrazole-5-yl)-4-thiazolecarboxamide] displayed an inhibition in vivo at 2 mg/kg of 97%.

In turn, `O=C(Nc1nnn[nH]1)c1csc(-c2ccccc2O)n1` [Compound I-1] registered an inhibition in vivo at 0.5 mg/kg in assay [1] (iv, I.V. (caudal vein), 0.5 mg/kg, 5 minutes before elicitation) of 67%. The inhibition in vivo at 1.5 mg/kg in assay [1] (iv, I.V. (caudal vein), 1.5 mg/kg, 5 minutes before elicitation) was 98%. This compound came in with an inhibition in vivo at 2 mg/kg in assay [1] (setting [3]) of 99%.
